This note sets out measurements from ChEMBL document CHEMBL3045741, “Antithyroid agents and QSAR studies: inhibition of lactoperoxidase-catalyzed iodination reaction by isochromene-1-thiones” (Med Chem Res, 2013).

One experiment deals with Lactoperoxidase (Bos taurus, UniProt P80025). As to the kind of experiment: Inhibition of Bos taurus (bovine) milk lactoperoxidase-catalyzed iodination of L-tyrosine substrate by reverse phase HPLC analysis.
The target in experiment [1] is Lactoperoxidase (Bos taurus) (UniProt P80025). The experiment is described as follows: Non-competitive inhibition of Bos taurus (bovine) milk lactoperoxidase using fixed concentration of L-tyrosine and varying concentration of H2O2 as substrate by Lineweaver-burk plot analysis.
For experiment [2] the target is unchanged. As to the kind of experiment: Non-competitive inhibition of Bos taurus (bovine) milk lactoperoxidase using varying concentration of L-tyrosine and fixed concentration of H2O2 as substrate by Lineweaver-burk plot analysis.
The target is the same in experiment [3]. As to the kind of experiment: Irreversible inhibition of Bos taurus (bovine) milk lactoperoxidase using L-tyrosine as substrate at 30 uM in presence of 0.08 to 0.8 mM H2O2 by reverse phase HPLC analysis.

SMILES strings stand for the structures. The source made the active and inactive calls. No cut-off for these calls is given here.

Regarding `S=c1oc(C2CCCCC2)cc2ccccc12`, the IC50 at Lactoperoxidase was 5.5 µM. As for `Cc1ccc(-c2cc3ccccc3c(=S)o2)cc1`, on Lactoperoxidase, it took 6.2 µM to reach half-maximal inhibition (IC50). Further, the inhibition result in experiment [1] and in experiment [2] was “Active” throughout. Regarding `S=c1oc(-c2cccc3ccccc23)cc2ccccc12`, the IC50 on Lactoperoxidase stood at 5.1 µM. For the same compound, the inhibition result in experiment [1], in experiment [2] and in experiment [3] was “Active” throughout. With `COc1ccc(-c2cc3ccccc3c(=S)o2)cc1`, on Lactoperoxidase, half-maximal inhibition (IC50) was put at 8.4 µM. Besides, the inhibition entry in experiment [3] is “Active”. For `S=c1oc(-c2ccoc2)cc2ccccc12`, the concentration for half-maximal inhibition (IC50) against Lactoperoxidase was 26.5 µM. Still for that read-out and setting: the figure for `COc1ccc(-c2cc3ccccc3c(=O)o2)cc1` is above 200 µM.

In the case of `O=c1oc(-c2ccccc2)cc2ccccc12`, the IC50 against Lactoperoxidase was above 200 µM. As for `O=c1oc(-c2ccco2)cc2ccccc12`, the 50% inhibitory concentration (IC50) at Lactoperoxidase was above 200 µM. Compound `O=c1oc(-c2cccc3ccccc23)cc2ccccc12` registered a 50% inhibitory concentration (IC50) against Lactoperoxidase of 34.6 µM. The compound `S=c1oc(-c2cccs2)cc2ccccc12` had an IC50 at Lactoperoxidase of 14.3 µM. Compound `S=c1oc(-c2ccccc2)cc2ccccc12` returned an IC50 on Lactoperoxidase of 13.9 µM.

At Lactoperoxidase, `S=c1oc(-c2ccc(Cl)cc2)cc2ccccc12` had a half-inhibitory concentration (IC50) of 26.4 µM. As for `CC(C)(C)c1cc2ccccc2c(=S)o1`, on Lactoperoxidase, the IC50 came to 21.9 µM. At Lactoperoxidase, `S=c1oc(-c2ccco2)cc2ccccc12` yielded an IC50 of 17.8 µM.

Regarding `O=c1oc(-c2ccc(Cl)cc2)cc2ccccc12`, at Lactoperoxidase, it took 105 µM to reach half-maximal inhibition (IC50). For `CCCCc1cc2ccccc2c(=S)o1`, inhibition on Lactoperoxidase was half-maximal at 17.4 µM (IC50). `Cn1cc[nH]c1=S` [METHIMAZOLE] yielded a half-inhibitory concentration (IC50) on Lactoperoxidase of 8.4 µM.

`Cc1ccc(-c2cc3ccccc3c(=O)o2)cc1` gave a half-inhibitory concentration (IC50) at Lactoperoxidase of 93.8 µM.

One may read the IC50 as the midpoint of a concentration-inhibition curve. A higher IC50 goes with weaker potency in that assay.
